Like-named read-outs stand apart in the source and are kept apart here.
Legend:
Format in all cases: cell-based
human TLR7 = target: T1, human TLR7 (Homo sapiens, UniProt Q9NYK1); assay: TLR7 inhibition reporter assay (HEK-Blue cells, secreted embryonic alkaline phosphatase reporter); settings: HEK-Blue cells overexpressing human TLR7, stimulated with gardiquimod 7.5 μM; read-out: TLR 7 IC50
T1 construct: host or cells: HEK-Blue cells (HEK293-derived reporter line)
T1 sequence (Q9NYK1 27-1049): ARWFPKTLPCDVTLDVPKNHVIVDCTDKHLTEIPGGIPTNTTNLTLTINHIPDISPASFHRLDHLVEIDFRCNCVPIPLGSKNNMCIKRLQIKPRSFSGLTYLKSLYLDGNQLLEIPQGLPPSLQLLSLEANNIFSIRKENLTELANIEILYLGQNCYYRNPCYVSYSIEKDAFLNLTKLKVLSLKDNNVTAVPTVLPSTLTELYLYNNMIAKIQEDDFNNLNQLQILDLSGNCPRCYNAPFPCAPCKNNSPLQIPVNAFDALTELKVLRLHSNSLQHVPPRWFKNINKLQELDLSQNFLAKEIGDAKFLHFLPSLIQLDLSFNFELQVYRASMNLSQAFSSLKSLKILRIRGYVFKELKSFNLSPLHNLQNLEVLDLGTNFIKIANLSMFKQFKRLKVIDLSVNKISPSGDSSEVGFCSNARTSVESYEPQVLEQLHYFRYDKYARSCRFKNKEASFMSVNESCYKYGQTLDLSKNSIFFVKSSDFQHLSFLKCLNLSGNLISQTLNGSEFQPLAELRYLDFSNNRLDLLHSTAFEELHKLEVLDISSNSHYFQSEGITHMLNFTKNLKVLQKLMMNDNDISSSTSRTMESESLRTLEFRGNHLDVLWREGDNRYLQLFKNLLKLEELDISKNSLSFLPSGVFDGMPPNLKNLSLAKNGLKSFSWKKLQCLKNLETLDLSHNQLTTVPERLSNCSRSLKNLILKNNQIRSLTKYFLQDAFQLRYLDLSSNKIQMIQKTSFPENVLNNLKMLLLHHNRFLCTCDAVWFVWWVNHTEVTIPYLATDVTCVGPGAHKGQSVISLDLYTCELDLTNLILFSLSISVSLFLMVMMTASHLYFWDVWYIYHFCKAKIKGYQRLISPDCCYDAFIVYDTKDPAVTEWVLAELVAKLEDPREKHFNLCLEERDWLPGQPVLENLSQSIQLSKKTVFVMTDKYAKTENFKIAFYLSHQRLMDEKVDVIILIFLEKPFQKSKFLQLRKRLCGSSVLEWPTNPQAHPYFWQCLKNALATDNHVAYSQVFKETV
Method in brief: (§1)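 Cells seeded at 15000 (TLR7), 20,000 (TLR8) or 25,000 (TLR9) per well; compound 0.05 nM–50 μM, 30 min RT pre-incubation. Agonists: gardiquimod 7.5 μM, R848 15.9 μM, ODN2006 5 nM respectively. 22 h, 37 °C; SEAP via HEK-Blue Detection; % inhibition vs agonist+DMSO and known-inhibitor wells.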

human TLR8 = target: T2, human TLR8 (Homo sapiens, UniProt Q9NR97); assay: TLR8 inhibition reporter assay (HEK-Blue cells, secreted embryonic alkaline phosphatase reporter); settings: HEK-Blue cells overexpressing human TLR8, stimulated with R848 15.9 μM; read-out: TLR 8 IC50
T2 construct: host or cells: HEK-Blue cells (HEK293-derived reporter line)
T2 sequence (Q9NR97 27-1041): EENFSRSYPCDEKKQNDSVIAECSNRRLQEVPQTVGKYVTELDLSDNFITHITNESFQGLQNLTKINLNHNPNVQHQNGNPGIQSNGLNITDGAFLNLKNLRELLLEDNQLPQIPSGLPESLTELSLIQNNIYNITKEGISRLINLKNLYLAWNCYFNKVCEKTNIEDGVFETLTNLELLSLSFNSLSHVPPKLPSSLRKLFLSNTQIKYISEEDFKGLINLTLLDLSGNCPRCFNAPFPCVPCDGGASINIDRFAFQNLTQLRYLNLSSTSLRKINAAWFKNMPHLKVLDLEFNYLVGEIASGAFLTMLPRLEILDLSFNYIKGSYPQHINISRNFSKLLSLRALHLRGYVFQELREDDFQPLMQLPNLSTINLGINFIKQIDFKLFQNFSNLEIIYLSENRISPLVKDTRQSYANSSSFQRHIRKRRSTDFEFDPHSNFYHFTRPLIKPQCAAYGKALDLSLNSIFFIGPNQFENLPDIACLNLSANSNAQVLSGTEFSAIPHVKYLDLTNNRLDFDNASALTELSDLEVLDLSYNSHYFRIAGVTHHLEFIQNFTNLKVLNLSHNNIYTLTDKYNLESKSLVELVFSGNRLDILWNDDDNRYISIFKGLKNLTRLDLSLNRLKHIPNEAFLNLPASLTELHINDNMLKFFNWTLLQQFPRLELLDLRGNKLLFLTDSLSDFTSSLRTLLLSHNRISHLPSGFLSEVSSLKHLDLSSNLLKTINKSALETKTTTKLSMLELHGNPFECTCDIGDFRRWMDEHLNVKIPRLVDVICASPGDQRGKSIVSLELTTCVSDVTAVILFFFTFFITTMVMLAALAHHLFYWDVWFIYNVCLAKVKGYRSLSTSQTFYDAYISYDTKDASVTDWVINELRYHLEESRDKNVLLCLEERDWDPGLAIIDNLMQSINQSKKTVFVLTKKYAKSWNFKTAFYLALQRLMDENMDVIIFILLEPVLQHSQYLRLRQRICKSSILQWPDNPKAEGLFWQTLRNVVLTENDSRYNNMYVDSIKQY
Method in brief: as §1

human TLR9 = target: T3, human TLR9 (Homo sapiens, UniProt Q9NR96); assay: TLR9 inhibition reporter assay (HEK-Blue cells, secreted embryonic alkaline phosphatase reporter)
T3 construct: host or cells: HEK-Blue cells (HEK293-derived reporter line)
T3 sequence (Q9NR96 26-1032): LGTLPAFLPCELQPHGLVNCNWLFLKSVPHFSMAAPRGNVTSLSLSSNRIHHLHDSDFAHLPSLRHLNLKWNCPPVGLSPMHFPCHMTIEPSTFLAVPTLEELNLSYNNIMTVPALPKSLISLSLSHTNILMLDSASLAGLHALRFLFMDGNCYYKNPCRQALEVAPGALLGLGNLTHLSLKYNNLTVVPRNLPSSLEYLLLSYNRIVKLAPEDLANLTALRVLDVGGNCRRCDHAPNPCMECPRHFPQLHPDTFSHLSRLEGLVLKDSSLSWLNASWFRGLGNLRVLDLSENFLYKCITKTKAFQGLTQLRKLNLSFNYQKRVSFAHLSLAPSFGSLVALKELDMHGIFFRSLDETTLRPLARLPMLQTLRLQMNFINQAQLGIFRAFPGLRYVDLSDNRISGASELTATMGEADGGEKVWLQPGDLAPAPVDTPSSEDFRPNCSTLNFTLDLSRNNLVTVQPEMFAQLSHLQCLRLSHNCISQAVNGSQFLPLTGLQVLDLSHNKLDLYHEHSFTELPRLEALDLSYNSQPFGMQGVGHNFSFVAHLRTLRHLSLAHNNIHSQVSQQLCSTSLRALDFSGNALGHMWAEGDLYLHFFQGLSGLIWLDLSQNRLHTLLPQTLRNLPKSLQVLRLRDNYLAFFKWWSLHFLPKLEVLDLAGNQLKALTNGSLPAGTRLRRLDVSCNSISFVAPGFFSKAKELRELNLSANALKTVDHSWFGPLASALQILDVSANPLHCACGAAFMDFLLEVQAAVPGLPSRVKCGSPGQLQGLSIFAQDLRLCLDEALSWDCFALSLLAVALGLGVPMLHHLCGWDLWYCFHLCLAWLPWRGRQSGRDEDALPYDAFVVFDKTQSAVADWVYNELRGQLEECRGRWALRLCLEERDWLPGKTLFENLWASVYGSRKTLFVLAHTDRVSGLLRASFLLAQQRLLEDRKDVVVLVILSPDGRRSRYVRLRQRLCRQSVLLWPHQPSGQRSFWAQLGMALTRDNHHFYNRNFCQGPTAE
Method in brief: as §1

[1] = HEK-Blue cells overexpressing human TLR9, stimulated with ODN2006 5 nM, read-out: TLR 9 IC50

Row | IC50 (human TLR7) | IC50 (human TLR8) | IC50 (human TLR9) | IC50 (human TLR9; [1]) | SMILES
1 | 18800 nM | > 50000 nM | 100 nM | 100 nM | COCCN1C2CCC1CC(N1CCC(c3cc4nc(-c5ccc(S(C)(=O)=O)cc5)n(C)c4cc3F)CC1)C2 (centres unmarked) [Example 258, 6-fluoro-5-(1-(8-(2-methoxyethyl)-8-azabicyclo[3.2.1]octan-3-yl)piperidin-4-yl)-1-methyl-2-(4-(methylsulfonyl)phenyl)-1H-benzo[d]imidazole]
2 | > 50000 nM | > 50000 nM | 500 nM | 500 nM | CC(C)CN1CCC(N2CCC(c3ccc4nc(-c5ccc(S(C)(=O)=O)cc5)n(C)c4c3F)CC2)CC1 [Example 259, 7-fluoro-6-(1′-isobutyl-[1,4′-bipiperidin]-4-yl)-1-methyl-2-(4-(methylsulfonyl)phenyl)-1H-benzo[d]imidazole]
3 | 21500 nM | > 50000 nM | 660 nM | 660 nM | Cn1c(-c2ccc(S(C)(=O)=O)cc2)nc2ccc(C3CCN(C4CCN(C5CC5)CC4)CC3)c(F)c21 [Example 260, 6-(1′-cyclopropyl-[1,4′-bipiperidin]-4-yl)-7-fluoro-1-methyl-2-(4-(methylsulfonyl)phenyl)-1H-benzo[d]imidazole]
4 | 7900 nM | > 50000 nM | 150 nM | 154 nM | Cn1c(-c2ccc(S(C)(=O)=O)cc2)nc2ccc(C3CCN(C4CCN(CC5CC5)CC4)CC3)c(F)c21 [Example 261, 6-(1′-(cyclopropylmethyl)-[1,4′-bipiperidin]-4-yl)-7-fluoro-1-methyl-2-(4-(methylsulfonyl)phenyl)-1H-benzo[d]imidazole]
5 | 14100 nM | > 50000 nM | 170 nM | 171 nM | Cn1c(-c2ccc(S(C)(=O)=O)cc2)nc2ccc(C3CCN(C4CCN(C5CCC5)CC4)CC3)c(F)c21 [Example 262, 6-(1′-cyclobutyl-[1,4′-bipiperidin]-4-yl)-7-fluoro-1-methyl-2-(4-(methylsulfonyl)phenyl)-1H-benzo[d]imidazole]
6 | 2300 nM | 20700 nM | 280 nM | 281 nM | Cn1c(-c2ccc(S(C)(=O)=O)cc2)nc2ccc(C3CCN(C4CCN(C5CCOCC5)CC4)CC3)c(F)c21 [Example 264, 7-fluoro-1-methyl-2-(4-(methylsulfonyl)phenyl)-6-(1′-(tetrahydro-2H-pyran-4-yl)-[1,4′-bipiperidin]-4-yl)-1H-benzo[d]imidazole]
7 | 7600 nM | > 50000 nM | 1000 nM | 1040 nM | COCCN1CCC(N2CCC(c3ccc4nc(-c5ccc(S(C)(=O)=O)cc5)n(C)c4c3F)CC2)CC1 [Example 265, 7-fluoro-6-(1′-(2-methoxyethyl)-[1,4′-bipiperidin]-4-yl)-1-methyl-2-(4-(methylsulfonyl)phenyl)-1H-benzo[d]imidazole]
8 | 27600 nM | > 50000 nM | 60 nM | 60 nM | Cn1c(-c2ccc(S(C)(=O)=O)cc2)nc2ccc(C3CCN(C4CC5CCC(C4)N5CC4CC4)CC3)c(F)c21 (centres unmarked) [Example 268, 6-(1-(8-(cyclopropylmethyl)-8-azabicyclo[3.2.1]octan-3-yl)piperidin-4-yl)-7-fluoro-1-methyl-2-(4-(methylsulfonyl)phenyl)-1H-benzo[d]imidazole]
9 | 12000 nM | 21500 nM | 180 nM | 176 nM | Cn1c(-c2ccc(S(C)(=O)=O)cc2)nc2ccc(C3CCN(C4CC5CCC(C4)N5CC4CC4)CC3)c(F)c21 (centres unmarked) [Example 269, 6-(1-(8-(cyclopropylmethyl)-8-azabicyclo[3.2.1]octan-3-yl)piperidin-4-yl)-7-fluoro-1-methyl-2-(4-(methylsulfonyl)phenyl)-1H-benzo[d]imidazole]
10 | 7500 nM | > 50000 nM | 300 nM | 303 nM | Cn1c(-c2ccc(S(C)(=O)=O)cc2)nc2ccc(C3CCN(C4CC5CCC(C4)N5C4COC4)CC3)c(F)c21 (centres unmarked) [Example 273, 7-fluoro-1-methyl-2-(4-(methylsulfonyl)phenyl)-6-(1-(8-(oxetan-3-yl)-8-azabicyclo[3.2.1]octan-3-yl)piperidin-4-yl)-1H-benzo[d]imidazole]
11 | 26100 nM | > 50000 nM | 51 nM | 51 nM | Cn1c(-c2ccc(S(C)(=O)=O)cc2)nc2ccc(C3CCN(C4CC5CCC(C4)N5C4CCOCC4)CC3)c(F)c21 (centres unmarked) [Example 274, 7-fluoro-1-methyl-2-(4-(methylsulfonyl)phenyl)-6-(1-(8-(tetrahydro-2H-pyran-4-yl)-8-azabicyclo[3.2.1]octan-3-yl)piperidin-4-yl)-1H-benzo[d]imidazole]

— US12492188B2, “1H-benzo[D]imidazole derivatives as TLR9 inhibitors for the treatment of fibrosis” (BRISTOL-MYERS SQUIBB COMPANY, priority 2020, dated 2025)
